System: 496974-208-R-J2-PDC complex spheroids, growth % test/control
Assay: Anticancer human tumor 496974-208-R-J2-PDC patient-derived pancreatic carcinoma cell line growth inhibition [CLK]
Conditions: for IC50: curve of first compound; for viability, T/C: stronger effect = lower value
From the text: A high-throughput screen of multi-cell type tumor spheroids was designed to identify active combinations of […] and targeted small molecules. Complex spheroids include a stromal component modeled by human endothelial cells (HUVEC) and fibroblasts modeled by human mesenchymal stem cells (MSCs). The concentration ranges selected for each drug and investigational agent were based upon clinically achievable concentrations if the clinical Cmax of the agent was known.
Compounds. The drugs and investigational agents: cirtuvivint (SM08502; NSC835563), CC-671 (NSC850746), vemurafenib (NSC761431), tapotoclax (NSC804041), sotorasib (NSC818433), adagrasib (NSC831453), MRTX-1133 (NSC836407), BAY2416964 (NSC825713), copanlisib (NSC816437), inavolisib (NSC800729), abemaciclib (NSC768073), osimertinib (NSC779217), entinostat (NSC756642), eltanexor (KPT-8602, NSC794443), venetoclax (NSC766270), ceralasertib (NSC777638), bortezomib (NSC756655), olaparib (NSC753686), talazoparib (NSC767125), alisertib (NSC759677), peposertib (NSC802822), gemcitabine (NSC613327), 5-fluorouracil (NSC19893), SN-38 (NSC673596), oxaliplatin (NSC266046), paclitaxel (NSC125973), and doxorubicin (NSC123127), were obtained from the National Cancer Institute (NCI) Developmental Therapeutics Program Chemical Repository. The FDA-approved anticancer drug set is available from the Developmental Therapeutics Program at https://dtp.cancer.gov/organization/dscb/obtaining/available plates.htm. […] The stock solutions were prepared in dimethyl sulfoxide (DMSO, Sigma-Aldrich, St. Louis, MO, cat. D2650), except for the platinum complexes which were prepared in saline (Quality Biological, Gaithersburg, MD, cat. 114-055-101), at 800-fold the tested concentration and stored at -70 degrees C prior to their use. All drugs and investigational agents were tested over a range starting from a high concentration at or near the clinical Cmax and decreasing in half-log increments. If the clinical Cmax for an agent had not been determined, the highest concentration tested was 10 microM.
Cell Culture. All cells were maintained in an incubator at 37 degrees C and 5% CO2 with 95% humidity. The PDC lines were cultured according to standard operating procedures established by the NCI PDMR. Briefly, all PDCs were thawed and cultured in Matrigel-coated flasks prepared with a working solution of 1X Ham's F-12 nutrient mix, without supplementation (Invitrogen, Waltham, MA, cat. 11765054), 100 U/mL penicillin-streptomycin (Invitrogen, cat. 15140122), and 2.5% Matrigel (Corning Inc., Corning, NY, cat. 354248) for the first three passages. The 947758-054-R-J2-PDC line was cultured in 6B/Colon 1A media, which includes advanced DMEM/F-12 (Thermo Fisher Scientific, cat. 12634028), 10 mM HEPES (Thermo Fisher Scientific, cat. 15630080), 1X GlutaMAX supplement (Thermo Fisher Scientific, cat. 35050061), 0.1 mg/mL primocin (InvivoGen, cat. ant-pm-2), 10% defined fetal bovine serum, heat inactivated (HyClone Laboratories Inc., cat. SH30070.03HI), 1.25 mM N-Acetyl-L-cysteine (Sigma-Aldrich, cat. A9165), 10 mM nicotinamide (Sigma-Aldrich, cat. N0636), 1X B-27 supplement (Thermo Fisher Scientific, cat. 17504044), 1X N-2 supplement (Thermo Fisher Scientific, cat. 17502048), and 10 microM Y-27632 dihydrochloride (Tocris Bioscience, cat. 1254). The 876862-298-R-J1-PDC was cultured in 6E media, which includes all 6B/Colon 1A media components plus 50% L-WRN conditioned media (ATCC, cat. CRL-3276), 50 ng/mL recombinant human EGF recombinant protein (hEGF; Thermo Fisher Scientific, cat. PHG0311), 10 ng/mL recombinant human fibroblast growth factor 10 (hGFG-10; PeproTech, cat. 100-26), 1 ng/mL recombinant human fibroblast growth factor 2 (hFGF-2; PeproTech, cat. 100-18B), and 1 µM prostaglandin E2 (PGE2; Tocris, cat. 2296). The 227483-062-R1-J1-PDC line was cultured in Panc media, containing all 6E components except hFGF-2, with the addition of 500 nM SB-431542 (Selleckchem, cat. S1067) and 10 nM gastrin (Tocris, cat. 3006). […]

[1] = second compound 0.0316 µM, first compound 0.0316 µM
[2] = second compound 0.0316 µM, first compound 0.1 µM
[3] = second compound 0.0316 µM, first compound 0.316 µM
[4] = second compound 0.0316 µM, first compound 1 µM
[5] = second compound 0.0316 µM, first compound 3.16 µM
[6] = second compound 0.0316 µM, first compound 10 µM
[7] = second compound 0.1 µM, first compound 0.0316 µM
[8] = second compound 0.1 µM, first compound 0.1 µM
[9] = second compound 0.1 µM, first compound 0.316 µM
[10] = second compound 0.1 µM, first compound 1 µM
[11] = second compound 0.1 µM, first compound 3.16 µM
[12] = second compound 0.1 µM, first compound 10 µM
[13] = second compound 0.316 µM, first compound 0.0316 µM
[14] = second compound 0.316 µM, first compound 0.1 µM
[15] = second compound 0.316 µM, first compound 0.316 µM
[16] = second compound 0.316 µM, first compound 1 µM
[17] = second compound 0.316 µM, first compound 3.16 µM
[18] = second compound 0.316 µM, first compound 10 µM
[19] = second compound 1 µM, first compound 0.0316 µM
[20] = second compound 1 µM, first compound 0.1 µM
[21] = second compound 1 µM, first compound 0.316 µM
[22] = second compound 1 µM, first compound 1 µM
[23] = second compound 1 µM, first compound 3.16 µM
[24] = second compound 1 µM, first compound 10 µM
[25] = second compound 3.16 µM, first compound 0.0316 µM
[26] = second compound 3.16 µM, first compound 0.1 µM
[27] = second compound 3.16 µM, first compound 0.316 µM
[28] = second compound 3.16 µM, first compound 1 µM
[29] = second compound 3.16 µM, first compound 3.16 µM
[30] = second compound 3.16 µM, first compound 10 µM
[31] = second compound 10 µM, first compound 0.0316 µM
[32] = second compound 10 µM, first compound 0.1 µM
[33] = second compound 10 µM, first compound 0.316 µM
[34] = second compound 10 µM, first compound 1 µM
[35] = second compound 10 µM, first compound 3.16 µM
[36] = second compound 10 µM, first compound 10 µM
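Note: spheroids exposed to the drugs for 7 days before readout.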
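Throughout, for viability, T/C: 100% = DMSO vehicle control wells.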

## C=C(F)C(=O)N1CCN(c2nc(OCC3CCCN3C)nc3c2CCN(c2cccc4cccc(Cl)c24)C3)CC1CC#N (centres undefined) + CN1CCN(c2cc(C(=O)Nc3cc4cc(-c5cnn(C)c5)ccc4cn3)ccn2)CC1
Second compound 0.0316 µM
  IC50: 5320 nM
Second compound 0.1 µM
  IC50: 4440 nM
Second compound 0.316 µM
  IC50: < 31.6 nM
Second compound 1 µM
  IC50: < 31.6 nM
Second compound 3.16 µM
  IC50: < 31.6 nM
Second compound 10 µM
  IC50: < 31.6 nM
[1]
  viability, T/C: 107%
[2]
  viability, T/C: 106%
[3]
  viability, T/C: 89.9%
[4]
  viability, T/C: 117%
[5]
  viability, T/C: 88.8%
[6]
  viability, T/C: 3.02%
[7]
  viability, T/C: 86.1%
[8]
  viability, T/C: 88.8%
[9]
  viability, T/C: 75.8%
[10]
  viability, T/C: 86.6%
[11]
  viability, T/C: 70.8%
[12]
  viability, T/C: 0.72%
[13]
  viability, T/C: 7.07%
[14]
  viability, T/C: 8.92%
[15]
  viability, T/C: 8.59%
[16]
  viability, T/C: 7.85%
[17]
  viability, T/C: 6.67%
[18]
  viability, T/C: 1.1%
[19]
  viability, T/C: 0.58%
[20]
  viability, T/C: 0.48%
[21]
  viability, T/C: 1.51%
[22]
  viability, T/C: 0.33%
[23]
  viability, T/C: 1.52%
[24]
  viability, T/C: 2.06%
[25]
  viability, T/C: 0.33%
[26]
  viability, T/C: 0.52%
[27]
  viability, T/C: 1.57%
[28]
  viability, T/C: 0.45%
[29]
  viability, T/C: 0.2%
[30]
  viability, T/C: 1.09%
[31]
  viability, T/C: 0.35%
[32]
  viability, T/C: 0.35%
[33]
  viability, T/C: 0.31%
[34]
  viability, T/C: 0.32%
[35]
  viability, T/C: 0.74%
[36]
  viability, T/C: 0.22%

## C=CC(=O)N1CCN(c2nc(=O)n(-c3c(C)ccnc3C(C)C)c3nc(-c4c(O)cccc4F)c(F)cc23)C(C)C1 (centres undefined) + CN1CCN(c2cc(C(=O)Nc3cc4cc(-c5cnn(C)c5)ccc4cn3)ccn2)CC1
Second compound 0.0316 µM
  IC50: > 10000 nM
Second compound 0.1 µM
  IC50: > 10000 nM
Second compound 0.316 µM
  IC50: < 31.6 nM
Second compound 1 µM
  IC50: < 31.6 nM
Second compound 3.16 µM
  IC50: < 31.6 nM
Second compound 10 µM
  IC50: < 31.6 nM
[1]
  viability, T/C: 102%
[2]
  viability, T/C: 114%
[3]
  viability, T/C: 104%
[4]
  viability, T/C: 120%
[5]
  viability, T/C: 128%
[6]
  viability, T/C: 99.9%
[7]
  viability, T/C: 90.2%
[8]
  viability, T/C: 89.7%
[9]
  viability, T/C: 89.2%
[10]
  viability, T/C: 104%
[11]
  viability, T/C: 101%
[12]
  viability, T/C: 78.4%
[13]
  viability, T/C: 8.25%
[14]
  viability, T/C: 9.83%
[15]
  viability, T/C: 8.72%
[16]
  viability, T/C: 10.3%
[17]
  viability, T/C: 7.48%
[18]
  viability, T/C: 5.87%
[19]
  viability, T/C: 0.39%
[20]
  viability, T/C: 0.6%
[21]
  viability, T/C: 1.15%
[22]
  viability, T/C: 0.78%
[23]
  viability, T/C: 1%
[24]
  viability, T/C: 3.71%
[25]
  viability, T/C: 0.44%
[26]
  viability, T/C: 1.82%
[27]
  viability, T/C: 0.7%
[28]
  viability, T/C: 0.75%
[29]
  viability, T/C: 0.83%
[30]
  viability, T/C: 2.13%
[31]
  viability, T/C: 0.31%
[32]
  viability, T/C: 0.35%
[33]
  viability, T/C: 0.36%
[34]
  viability, T/C: 0.46%
[35]
  viability, T/C: 2.05%
[36]
  viability, T/C: 0.94%

From PubChem BioAssay AID2060615 (Molecular Pharmacology Branch, DTP, NCI, 2025)
